Source: US20110092367A1, “Herbicidal Compositions Comprising 4-amino-3,6-dichloropyridine-2-carboxylic Acid” (BASF SE, priority 2008, published 2011)

Key:
Type in all cases: in vivo
[1] = tested on: Centauria cyanus; experiment: Greenhouse trial, post-emergence: CENCY; conditions: for % activity 28 DAT: CENCY, post-emergence (Tables 7-9)
Protocol: (§1) The test plants have been seeded, separately for each species, in plastic containers in sandy loamy soil containing 5% organic matter.
(§2) For the post emergence treatment, the plants were first grown to the 2 leaf station (GS 12). Here, the herbicidal compositions were suspended or emulsified in water as distribution medium and sprayed using finely distributing nozzels.
(§3) The plants have been cultivated due to there individual requirements at 10-25° C. and 20-35° C. The plants were irrigated due to there necessity. […]
(§4) The evaluation for the damage on undesired weeds caused by the chemical compositions was carried out using a scale from 0 to 100%, compared to the untreated control plants. Here, 0 means no damage and 100 means complete destruction of the plants.
(§5) Calculation of expected activity of binary mixtures was done by using the Colby-Formula according to Example 1.

[2] = tested on: Matricaria inodora; experiment: Field trial Example 1, successive application: damage on MATIN
Excerpt: (§6) Aminiopyralid was used as commercial aquaeous solution having an active ingredient concentration of 240 g/l (Milestone™). Metazachlor was used as a commercial suspension concentrate having an active ingredient concentration of 500 g/l (Butisan S®).
(§7) The performance of aminopyralid applied as an alone treatment at 15, 30 and 50 g a.i./ha applied as an early post emergence treatment and an post emergence treatment in comparison to two different applications including metazachlor at 500 g a.i./ha as an early post emergence application in succession of aminopyralid as a post emergence application at 15 and 30 g a.i./ha was assessed in an oilseed rape field trials.
(§8) The early post emergence treatment was applied by means of fine distributed nozzles at the growth stage (GS) of the crop BBCH 11-12.
(§9) The post emergence treatment was applied by means of fine distributed nozzles at the growth stage (GS) of the crop BBCH 13-14.
(§10) The test period extended over the autumn and spring season (205 days).
(§11) In the following experiments, the herbicidal activity for the individual herbicide compounds (solo application) and of the herbicidal succession was assessed 4 times:
as §4

[3] = tested on: Apera spica-venti; experiment: Field trial Example 1, successive application: damage on APESV
Excerpt: as §6, §7, §8, §9, §10, §11, §4

[4] = tested on: Capsella bursa-pasturis; experiment: Greenhouse trial, post-emergence: CAPBP; conditions: aminopyralid 10 g ai/ha solo, post-emergence (Table 10)
Protocol: as §1, §2, §3, §4, §5

[5] = tested on: Mercurialis annua; experiment: Greenhouse trial, post-emergence: MERAN; conditions: for % activity 28 DAT: MERAN
Protocol: as §1, §2, §3, §4, §5

[6] = tested on: Lamium purpureum; experiment: Greenhouse trial, post-emergence: LAMPU; conditions: for % activity 28 DAT: LAMPU
Protocol: as §1, §2, §3, §4, §5

[7] = tested on: Stellaria media; experiment: Field trial Example 1, successive application: damage on STEME
Excerpt: as §6, §7, §8, §9, §10, §11, §4

[8] = tested on: Matricaria chamomilla; experiment: Greenhouse trial, post-emergence: MATCH; conditions: read-out: % activity, MATCH
Protocol: as §1, §2
The plants have been cultivated due to there individual requirements at 10-25° C. and 20-35° C. The plants were irrigated due to there necessity.
In the following experiments, the herbicidal activity for the individual herbicide compounds (solo and mixture applications), the herbicidal succession was assessed 14 days after treatment (DAT).
as §4, §5
E=(X+Y+Z)−(X*Y+X*Z+Y*Z/100)+(X*Y*Z/1000)
Tables 6 to 10 relate to the herbicidal activity, in greenhouse trials, of the individual actives and the combination in post-emergence application 14 DAT.

[9] = post-emergence, 672 h, read-out: % activity 28 DAT, CENCY
[10] = 15 g ai/ha, treatment A early post emergence, DAT 25/DALT 10
[11] = 15 g ai/ha, treatment A early post emergence, DAT 65/DALT 50
[12] = 15 g ai/ha, treatment A early post emergence, DAT 176/DALT 161
[13] = 15 g ai/ha, treatment B post emergence, DAT 25/DALT 10
[14] = 15 g ai/ha, treatment B post emergence, DAT 65/DALT 50
[15] = 15 g ai/ha, treatment B post emergence, DAT 176/DALT 161
[16] = 30 g ai/ha, treatment A early post emergence, DAT 25/DALT 10
[17] = 30 g ai/ha, treatment A early post emergence, DAT 65/DALT 50
[18] = 30 g ai/ha, treatment A early post emergence, DAT 176/DALT 161
[19] = 30 g ai/ha, treatment B post emergence, DAT 25/DALT 10
[20] = 30 g ai/ha, treatment B post emergence, DAT 65/DALT 50
[21] = 30 g ai/ha, treatment B post emergence, DAT 176/DALT 161
[22] = 50 g ai/ha, treatment A early post emergence, DAT 25/DALT 10
[23] = 50 g ai/ha, treatment A early post emergence, DAT 65/DALT 50
[24] = 50 g ai/ha, treatment A early post emergence, DAT 176/DALT 161
[25] = 50 g ai/ha, treatment B post emergence, DAT 25/DALT 10
[26] = 50 g ai/ha, treatment B post emergence, DAT 65/DALT 50
[27] = 50 g ai/ha, treatment B post emergence, DAT 176/DALT 161
[28] = aminopyralid 15 g ai/ha, treatment A, DAT 205/DALT 190
[29] = aminopyralid 15 g ai/ha, treatment B, DAT 205/DALT 190
[30] = aminopyralid 30 g ai/ha, treatment A, DAT 205/DALT 190
[31] = aminopyralid 30 g ai/ha, treatment B, DAT 205/DALT 190
[32] = aminopyralid 50 g ai/ha, treatment A, DAT 205/DALT 190
[33] = aminopyralid 50 g ai/ha, treatment B, DAT 205/DALT 190
[34] = aminopyralid 5 g ai/ha solo, post-emergence (Table 10)
[35] = aminopyralid 5 g ai/ha solo, post-emergence (Tables 7-9)
[36] = aminopyralid 10 g ai/ha solo, post-emergence (Table 10)
[37] = aminopyralid 10 g ai/ha solo, post-emergence (Tables 7-9)
[38] = Lamium purpureum, post-emergence, 672 h, read-out: % activity 28 DAT, LAMPU

Nc1cc(Cl)nc(C(=O)O)c1Cl [aminopyralid, 4-amino-3,6-dichloropyridine-2-carboxylic acid]
% activity 28 DAT ([1]; aminopyralid 5 g ai/ha solo): 60% | % activity 28 DAT ([1]; aminopyralid 10 g ai/ha solo): 65% | inhibition at 5 g/ha [1, 9]: 70% | inhibition at 10 g/ha [1, 9]: 85% | damage on MATIN [2, 10]: 97% | damage on MATIN [2, 11]: 96% | damage on MATIN [2, 12]: 100% | damage on MATIN [2, 13]: 88% | damage on MATIN [2, 14]: 88% | damage on MATIN [2, 15]: 98% | damage on MATIN [2, 16]: 100% | damage on MATIN [2, 17]: 98% | damage on MATIN [2, 18]: 100% | damage on MATIN [2, 19]: 82% | damage on MATIN [2, 20]: 91% | damage on MATIN [2, 21]: 100% | damage on MATIN [2, 22]: 100% | damage on MATIN [2, 23]: 100% | damage on MATIN [2, 24]: 100% | damage on MATIN [2, 25]: 88% | damage on MATIN [2, 26]: 94% | damage on MATIN [2, 27]: 98% | damage on MATIN [2, 28]: 100% | damage on MATIN [2, 29]: 100% | damage on MATIN [2, 30]: 100% | damage on MATIN [2, 31]: 100% | damage on MATIN [2, 32]: 100% | damage on MATIN [2, 33]: 100% | damage on APESV [3, 11]: 28% | damage on APESV [3, 12]: 28% | damage on APESV [3, 14]: 32% | damage on APESV [3, 15]: 32% | damage on APESV [3, 17]: 47% | damage on APESV [3, 18]: 47% | damage on APESV [3, 20]: 38% | damage on APESV [3, 21]: 38% | damage on APESV [3, 23]: 85% | damage on APESV [3, 24]: 85% | damage on APESV [3, 26]: 55% | damage on APESV [3, 27]: 55% | damage on APESV [3, 28]: 28% | damage on APESV [3, 29]: 45% | damage on APESV [3, 30]: 47% | damage on APESV [3, 31]: 38% | damage on APESV [3, 32]: 85% | damage on APESV [3, 33]: 55% | % activity 28 DAT [4]: 25% | % activity 28 DAT [5, 34]: 70% | % activity 28 DAT [5, 35]: 40% | % activity 28 DAT [5, 36]: 90% | % activity 28 DAT [5, 37]: 75% | inhibition at 10 g/ha ([5]; Mercurialis annua, post-emergence, 672 h, read-out: % activity 28 DAT, MERAN): 90% | % activity 28 DAT [6, 34]: 20% | % activity 28 DAT [6, 35]: 30% | % activity 28 DAT [6, 36]: 30% | % activity 28 DAT [6, 37]: 65% | inhibition at 5 g/ha [6, 38]: 20% | inhibition at 10 g/ha [6, 38]: 30% | damage on STEME [7, 10]: 32% | damage on STEME [7, 11]: 52% | damage on STEME [7, 12]: 93% | damage on STEME [7, 13]: 12% | damage on STEME [7, 14]: 50% | damage on STEME [7, 15]: 77% | damage on STEME [7, 16]: 90% | damage on STEME [7, 17]: 97% | damage on STEME [7, 18]: 98% | damage on STEME [7, 19]: 38% | damage on STEME [7, 20]: 68% | damage on STEME [7, 21]: 95% | damage on STEME [7, 22]: 100% | damage on STEME [7, 23]: 100% | damage on STEME [7, 24]: 100% | damage on STEME [7, 25]: 67% | damage on STEME [7, 26]: 88% | damage on STEME [7, 27]: 95% | damage on STEME [7, 28]: 93% | damage on STEME [7, 29]: 78% | damage on STEME [7, 30]: 100% | damage on STEME [7, 31]: 98% | damage on STEME [7, 32]: 100% | damage on STEME [7, 33]: 97% | inhibition at 5 g/ha [8]: 75% | inhibition at 10 g/ha [8]: 85%
